For the assay, the system named is Lactobacillus reuteri VHProbi E18. As to the kind of experiment: Antibiotic tolerance experiment, MIC by broth microdilution. In kind it is cell-based. The following applies: for MIC: antibiotic against Lactobacillus reuteri VHProbi E18. The procedure:
The minimum inhibitory concentration (MIC) value of antibiotics against Lactobacillus reuteri VHProbi E18 was determined by the broth microdilution method.

The mark [1] stands for this setting: Limosilactobacillus reuteri, read-out: MIC.

For orientation: MIC means the smallest concentration in the dilution series that meets the test's criterion for growth inhibition.

In brackets after ≈: the same amount, converted by molar mass. Where two headings read alike, the source gives them in different places.

Molecule Gentamicin gave an MIC of 256 µg/mL. `[H]/N=C(/N)N[C@H]1[C@H](O)[C@@H](O)[C@H](O[C@@H]2O[C@@H](C)[C@](O)(C=O)[C@H]2O[C@@H]2O[C@@H](CO)[C@H](O)[C@@H](O)[C@@H]2NC)[C@@H](N/C(N)=N\[H])[C@@H]1O` [Streptomycin]: the MIC under setting [1] worked out at 512 µg/mL (≈ 880 µM). Regarding `CC[C@H]1OC(=O)[C@H](C)[C@@H](O[C@H]2C[C@@](C)(OC)[C@@H](O)[C@H](C)O2)[C@H](C)[C@@H](O[C@@H]2O[C@H](C)C[C@H](N(C)C)[C@H]2O)[C@](C)(O)C[C@@H](C)C(=O)[C@H](C)[C@@H](O)[C@]1(C)O` [Erythromycin], the “sensitivity of Lactobacillus reuteri VHProbi E18 to the antibiotic” value is given as “sensitive”. In addition, under setting [1], the MIC is 1 µg/mL (≈ 1.36 µM).

Turning to `CN(C)[C@@H]1C(O)=C(C(N)=O)C(=O)[C@@]2(O)C(O)=C3C(=O)c4c(O)cccc4[C@@](C)(O)[C@H]3C[C@@H]12` [Tetracycline], under setting [1], the MIC was 16 µg/mL (≈ 36 µM). Take `CC1(C)S[C@@H]2[C@H](NC(=O)[C@H](N)c3ccccc3)C(=O)N2[C@H]1C(=O)O` [Ampicillin]: the “sensitivity of Lactobacillus reuteri VHProbi E18 to the antibiotic” value is recorded as “sensitive”. Besides, the MIC under setting [1] was 1 µg/mL (≈ 2.86 µM).

Take `CCC[C@@H]1C[C@@H](C(=O)N[C@@H]([C@H]2O[C@H](SC)[C@H](O)[C@@H](O)[C@H]2O)[C@H](C)Cl)N(C)C1` [Clindamycin]: the minimal inhibitory concentration (MIC) under setting [1] was 256 µg/mL (≈ 602 µM).

These data come from patent publication US20250073281A1, “LACTOBACILLUS REUTERI HAVING IMPROVED ANTI-AGING AND HAIR HEALTH ENHANCEMENT EFFECTS, AND APPLICATION THEREOF” (priority 2021, published 2025).
